Assay results: the CheMixHub drug solubility set

Test: xn = mol fraction of the nth substance listed, in the solute-free solvent

Cc1ccc2cc(Br)ccc2n1 + CCO + O
solubility (g/100 g solution)
Conditions | 278.15 K | 283.15 K | 288.15 K | 293.15 K | 298.15 K | 303.15 K | 308.15 K | 313.15 K | 318.15 K | 323.15 K
x2 = 0.04165 | 0.0289 | 0.0336 | 0.0393 | 0.0455 | 0.0528 | 0.0607 | 0.0707 | 0.0816 | 0.0939 | 0.108
x2 = 0.08908 | 0.0673 | 0.0777 | 0.0902 | 0.103 | 0.119 | 0.137 | 0.158 | 0.181 | 0.207 | 0.237
x2 = 0.1436 | 0.119 | 0.137 | 0.159 | 0.181 | 0.209 | 0.239 | 0.276 | 0.315 | 0.359 | 0.411
x2 = 0.2068 | 0.176 | 0.203 | 0.234 | 0.267 | 0.308 | 0.354 | 0.408 | 0.466 | 0.53 | 0.607
x2 = 0.2812 | 0.218 | 0.26 | 0.304 | 0.347 | 0.4 | 0.46 | 0.535 | 0.61 | 0.695 | 0.798
x2 = 0.3698 | 0.266 | 0.313 | 0.373 | 0.43 | 0.501 | 0.579 | 0.667 | 0.762 | 0.873 | 1.01
x2 = 0.4772 | 0.308 | 0.37 | 0.442 | 0.521 | 0.603 | 0.705 | 0.819 | 0.935 | 1.07 | 1.24
x2 = 0.6101 | 0.356 | 0.425 | 0.505 | 0.593 | 0.693 | 0.812 | 0.948 | 1.09 | 1.27 | 1.47
x2 = 0.7788 | 0.399 | 0.477 | 0.569 | 0.67 | 0.785 | 0.925 | 1.08 | 1.25 | 1.44 | 1.66
